Test results as given in the NIST ThermoML archive (doi:10.1016/j.jct.2012.11.014).
± gives the expanded uncertainty stated by the source.

Assay: xn = mol fraction of the nth substance listed
Settings: 101 kPa, Liquid; for speed of sound: Frequency=2 MHz, Linear variable-path acoustic interferometer; for viscosity: Oscillating disk viscometry; for mass density: Vibrating tube method

CC(=O)[O-].C[NH+](C)C [trimethylammonium acetate] + C[S+](C)[O-]
Settings | mass density [kg/m3] | speed of sound [m/s] | viscosity [mPa·s]
298.15 K, x1 = 0.0159 | 1094.86 ± 1 | 1497 ± 3 | 2.03 ± 0.13
298.15 K, x1 = 0.0656 | 1093.33 ± 1 | 1501 ± 3 | 2.16 ± 0.13
298.15 K, x1 = 0.1182 | 1091.46 ± 1 | 1505 ± 3 | 2.29 ± 0.14
298.15 K, x1 = 0.1693 | 1089.27 ± 1 | 1509 ± 3 | 2.41 ± 0.15
298.15 K, x1 = 0.2333 | 1086.77 ± 1 | 1513 ± 3 | 2.55 ± 0.16
298.15 K, x1 = 0.2857 | 1084.45 ± 1 | 1517 ± 3 | 2.66 ± 0.16
298.15 K, x1 = 0.3408 | 1081.92 ± 1 | 1521 ± 3 | 2.77 ± 0.17
298.15 K, x1 = 0.3877 | 1079.63 ± 1 | 1524 ± 3 | 2.84 ± 0.18
298.15 K, x1 = 0.4358 | 1077.39 ± 1 | 1527 ± 3 | 2.91 ± 0.18
298.15 K, x1 = 0.5129 | 1073.63 ± 1 | 1532 ± 3 | 3 ± 0.19
298.15 K, x1 = 0.5506 | 1071.66 ± 1 | 1534 ± 3 | 3.03 ± 0.19
298.15 K, x1 = 0.5959 | 1069.68 ± 1 | 1536 ± 3 | 3.05 ± 0.19
298.15 K, x1 = 0.6852 | 1065.62 ± 1 | 1540 ± 3 | 3.08 ± 0.19
298.15 K, x1 = 0.7487 | 1062.84 ± 1 | 1542 ± 3 | 3.06 ± 0.19
298.15 K, x1 = 0.8156 | 1060.15 ± 1 | 1543 ± 3 | 3.01 ± 0.19
298.15 K, x1 = 0.8651 | 1058.27 ± 1 | 1544 ± 3 | 2.97 ± 0.19
298.15 K, x1 = 0.9231 | 1056.26 ± 1 | 1544 ± 3 | 2.89 ± 0.19
298.15 K, x1 = 0.961 | 1055.02 ± 1 | 1544 ± 3 | 2.84 ± 0.18
298.15 K, x1 = 1 | 1053.85 ± 1 | 1544 ± 3 | 2.76 ± 0.18
303.15 K, x1 = 0.0159 | 1092.06 ± 1 | 1473 ± 3 | 1.85 ± 0.12
303.15 K, x1 = 0.0656 | 1090.58 ± 1 | 1477 ± 3 | 1.99 ± 0.12
303.15 K, x1 = 0.1182 | 1088.73 ± 1 | 1480 ± 3 | 2.12 ± 0.13
303.15 K, x1 = 0.1693 | 1086.54 ± 1 | 1484 ± 3 | 2.23 ± 0.14
303.15 K, x1 = 0.2333 | 1083.95 ± 1 | 1488 ± 3 | 2.37 ± 0.15
303.15 K, x1 = 0.2857 | 1081.41 ± 1 | 1492 ± 3 | 2.47 ± 0.15
303.15 K, x1 = 0.3408 | 1078.78 ± 1 | 1495 ± 3 | 2.56 ± 0.16
303.15 K, x1 = 0.3877 | 1076.45 ± 1 | 1498 ± 3 | 2.63 ± 0.16
303.15 K, x1 = 0.4358 | 1074.03 ± 1 | 1501 ± 3 | 2.7 ± 0.17
303.15 K, x1 = 0.5129 | 1070.25 ± 1 | 1505 ± 3 | 2.78 ± 0.17
303.15 K, x1 = 0.5506 | 1068.52 ± 1 | 1507 ± 3 | 2.81 ± 0.17
303.15 K, x1 = 0.5959 | 1066.19 ± 1 | 1509 ± 3 | 2.83 ± 0.18
303.15 K, x1 = 0.6852 | 1062.02 ± 1 | 1512 ± 3 | 2.82 ± 0.18
303.15 K, x1 = 0.7487 | 1059.21 ± 1 | 1513 ± 3 | 2.8 ± 0.18
303.15 K, x1 = 0.8156 | 1056.44 ± 1 | 1514 ± 3 | 2.75 ± 0.17
303.15 K, x1 = 0.8651 | 1054.43 ± 1 | 1515 ± 3 | 2.65 ± 0.17
303.15 K, x1 = 0.9231 | 1052.36 ± 1 | 1515 ± 3 | 2.55 ± 0.17
303.15 K, x1 = 0.961 | 1051.09 ± 1 | 1515 ± 3 | 2.48 ± 0.16
303.15 K, x1 = 1 | 1049.87 ± 1 | 1514 ± 3 | 2.37 ± 0.16
308.15 K, x1 = 0.0159 | 1085.87 ± 1 | 1461 ± 3 | 1.71 ± 0.11
308.15 K, x1 = 0.0656 | 1084.72 ± 1 | 1465 ± 3 | 1.84 ± 0.11
308.15 K, x1 = 0.1182 | 1083.28 ± 1 | 1469 ± 3 | 1.96 ± 0.12
308.15 K, x1 = 0.1693 | 1081.2 ± 1 | 1473 ± 3 | 2.07 ± 0.13
308.15 K, x1 = 0.2333 | 1078.93 ± 1 | 1479 ± 3 | 2.2 ± 0.14
308.15 K, x1 = 0.2857 | 1076.51 ± 1 | 1483 ± 3 | 2.29 ± 0.14
308.15 K, x1 = 0.3408 | 1073.96 ± 1 | 1487 ± 3 | 2.39 ± 0.15
308.15 K, x1 = 0.3877 | 1071.75 ± 1 | 1491 ± 3 | 2.45 ± 0.15
308.15 K, x1 = 0.4358 | 1069.43 ± 1 | 1494 ± 3 | 2.51 ± 0.15
308.15 K, x1 = 0.5129 | 1065.68 ± 1 | 1499 ± 3 | 2.57 ± 0.16
308.15 K, x1 = 0.5506 | 1063.92 ± 1 | 1501 ± 3 | 2.59 ± 0.16
308.15 K, x1 = 0.5959 | 1061.71 ± 1 | 1504 ± 3 | 2.6 ± 0.16
308.15 K, x1 = 0.6852 | 1057.63 ± 1 | 1507 ± 3 | 2.59 ± 0.16
308.15 K, x1 = 0.7487 | 1054.92 ± 1 | 1509 ± 3 | 2.55 ± 0.16
308.15 K, x1 = 0.8156 | 1052.23 ± 1 | 1511 ± 3 | 2.49 ± 0.16
308.15 K, x1 = 0.8651 | 1050.25 ± 1 | 1511 ± 3 | 2.39 ± 0.15
308.15 K, x1 = 0.9231 | 1048.26 ± 1 | 1511 ± 3 | 2.27 ± 0.15
308.15 K, x1 = 0.961 | 1046.98 ± 1 | 1510 ± 3 | 2.19 ± 0.14
308.15 K, x1 = 1 | 1045.81 ± 1 | 1508 ± 3 | 2.06 ± 0.14
313.15 K, x1 = 0.0159 | 1081.32 ± 1 | 1443 ± 3 | 1.61 ± 0.1
313.15 K, x1 = 0.0656 | 1080.52 ± 1 | 1447 ± 3 | 1.73 ± 0.11
313.15 K, x1 = 0.1182 | 1079.21 ± 1 | 1452 ± 3 | 1.85 ± 0.11
313.15 K, x1 = 0.1693 | 1077.1 ± 1 | 1457 ± 3 | 1.96 ± 0.12
313.15 K, x1 = 0.2333 | 1074.98 ± 1 | 1463 ± 3 | 2.08 ± 0.13
313.15 K, x1 = 0.2857 | 1072.77 ± 1 | 1468 ± 3 | 2.16 ± 0.13
313.15 K, x1 = 0.3408 | 1070.09 ± 1 | 1472 ± 3 | 2.26 ± 0.14
313.15 K, x1 = 0.3877 | 1067.96 ± 1 | 1476 ± 3 | 2.31 ± 0.14
313.15 K, x1 = 0.4358 | 1065.48 ± 1 | 1481 ± 3 | 2.36 ± 0.15
313.15 K, x1 = 0.5129 | 1061.68 ± 1 | 1486 ± 3 | 2.41 ± 0.15
313.15 K, x1 = 0.5506 | 1060.02 ± 1 | 1489 ± 3 | 2.43 ± 0.15
313.15 K, x1 = 0.5959 | 1057.67 ± 1 | 1491 ± 3 | 2.44 ± 0.15
313.15 K, x1 = 0.6852 | 1053.56 ± 1 | 1495 ± 3 | 2.41 ± 0.15
313.15 K, x1 = 0.7487 | 1050.78 ± 1 | 1497 ± 3 | 2.37 ± 0.15
313.15 K, x1 = 0.8156 | 1048.06 ± 1 | 1497 ± 3 | 2.29 ± 0.14
313.15 K, x1 = 0.8651 | 1045.97 ± 1 | 1496 ± 3 | 2.18 ± 0.14
313.15 K, x1 = 0.9231 | 1044.14 ± 1 | 1495 ± 3 | 2.06 ± 0.13
313.15 K, x1 = 0.961 | 1042.88 ± 1 | 1493 ± 3 | 1.97 ± 0.13
313.15 K, x1 = 1 | 1041.7 ± 1 | 1490 ± 3 | 1.83 ± 0.12
